# Laboratory results: patent US20110319424A1, “NAPHTHYRIDIN-2(1H) -ONE COMPOUNDS USEFUL AS ANTIBACTERIALS” (priority 2008, published 2011)
# Tested on: Mycobacterium tuberculosis H37Rv
# Assay: Mycobacterium tuberculosis H37Rv inhibition assay (MIC, resazurin fluorescence)
# Type: cell-based
# Conditions: ATCC 25618 / H37Rv, 144 h, H37Rv strain (ATCC25618), Middlebrook 7H9, six days at 37° C. then resazurin 48 hours
row,Compound,MIC [µg/mL]
1,"O=c1ccc2ncc(F)cc2n1CCN1CCC(NCc2ccc(Br)cn2)CC1 [Example 1, 1-[2-(4-{[(5-Bromo-2-pyridinyl)methyl]amino}-1-piperidinyl)ethyl]-7-fluoro-1,5-naphthyridin-2(1H)-one]",≤ 1
2,"Cl.Cl.O=c1ccc2ncc(F)cc2n1CCN1CCC(NCc2ccc(Br)cn2)CC1 [Example 1b, 1-[2-(4-{[(5-Bromo-2-pyridinyl)methyl]amino}-1-piperidinyl)ethyl]-7-fluoro-1,5-napthyridin-2(1H)-one dihydrochloride]",≤ 1
3,"COc1cnc2ccc(=O)n(CCN3CCC(NCc4cnc(Br)s4)CC3)c2c1 [Example 2, 1-[2-(4-{[(2-Bromo-1,3-thiazol-5-yl)methyl]amino}-1-piperidinyl)ethyl]-7-(methyloxy)-1,5-naphthyridin-2(1H)-one]",≤ 1
4,"COc1cnc2ccc(=O)n(CCN3CCC(NCc4cnc(Br)s4)CC3)c2c1.Cl [Example 2b, 1-[2-(4-{[(2-Bromo-1,3-thiazol-5-yl)methyl]amino}-1-piperidinyl)ethyl]-7-(methyloxy)-1,5-naphthyridin-2(1H)-one hydrochloride]",≤ 1
5,"O=c1ccc2ncc(F)cc2n1CCN1CCC(NCc2ccc(Cl)c(Cl)c2)CC1 [Example 3, 1-[2-(4-{[(3,4-Dichlorophenyl)methyl]amino}-1-piperidinyl)ethyl]-7-fluoro-1,5-naphthyridin-2(1H)-one]",≤ 1
6,"Cl.Cl.O=c1ccc2ncc(F)cc2n1CCN1CCC(NCc2ccc(Cl)c(Cl)c2)CC1 [Example 3b, 1-[2-(4-{[(3,4-Dichlorophenyl)methyl]amino}-1-piperidinyl)ethyl]-7-fluoro-1,5-naphthyridin-2(1H)-one dihydrochloride]",≤ 1
7,"COc1cnc2ccc(=O)n(CCN3CCC(NCc4ccc(C(F)(F)F)nc4)CC3)c2c1 [Example 4, 7-(Methyloxy)-1-{2-[4-({[6-(trifluoromethyl)-3-pyridinyl]methyl}amino)-1-piperidinyl]ethyl}-1,5-naphthyridin-2(1H)-one]",≤ 1
8,"COc1cnc2ccc(=O)n(CCN3CCC(NCc4ccc(C(F)(F)F)nc4)CC3)c2c1.Cl [Example 4b, 7-(Methyloxy)-1-{2-[4-({[6-(trifluoromethyl)-3-pyridinyl]methyl}amino)-1-piperidinyl]ethyl}-1,5-naphthyridin-2(1H)-one hydrochloride]",≤ 1
9,"COc1cnc2ccc(=O)n(CCN3CCC(NCc4nc(C)c(C)s4)CC3)c2c1 [Example 6, 1-[2-(4-{[(4,5-Dimethyl-1,3-thiazol-2-yl)methyl]amino}-1-piperidinyl)ethyl]-7-(methyloxy)-1,5-naphthyridin-2(1H)-one]",≤ 2.4
10,"O=c1ccc2ncccc2n1CCN1CCC(NCc2ccc(Cl)c(Cl)c2)CC1 [Example 8, 1-[2-(4-{[(3,4-Dichlorophenyl)methyl]amino}-1-piperidinyl)ethyl]-1,5-naphthyridin-2(1H)-one]",≤ 1
11,"Cl.Cl.O=c1ccc2ncccc2n1CCN1CCC(NCc2ccc(Cl)c(Cl)c2)CC1 [Example 8b, 1-[2-(4-{[(3,4-Dichlorophenyl)methyl]amino}-1-piperidinyl)ethyl]-1,5-naphthyridin-2(1H)-one dihydrochloride]",≤ 1
12,"O=c1ccc2ncccc2n1CCN1CCC(NCc2ccc(Br)nc2)CC1 [Example 9, 1-[2-(4-{[(6-Bromo-3-pyridinyl)methyl]amino}-1-piperidinyl)ethyl]-1,5-naphthyridin-2(1H)-one]",≤ 2.4
13,"COc1cnc2ccc(=O)n(CCN3CCC(NCc4ccc(Cl)c(Cl)c4)CC3)c2c1 [Example 11, 1-[2-(4-{[(3,4-Dichlorophenyl)methyl]amino}-1-piperidinyl)ethyl]-7-(methyloxy)-1,5-naphthyridin-2(1H)-one]",≤ 1
14,"COc1cnc2ccc(=O)n(CCN3CCC(NCc4ccc(Cl)c(Cl)c4)CC3)c2c1.Cl [Example 11b, 1-[2-(4-{[(3,4-Dichlorophenyl)methyl]amino}-1-piperidinyl)ethyl]-7-(methyloxy)-1,5-naphthyridin-2(1H)-one hydrochloride]",≤ 1
15,"COc1cnc2ccc(=O)n(CCN3CCC(NCc4ccc(Cl)c(Cl)c4)CC3)c2c1.Cl.Cl [Example 11c, 1-[2-(4-{[(3,4-Dichlorophenyl)methyl]amino}-1-piperidinyl)ethyl]-7-(methyloxy)-1,5-naphthyridin-2(1H)-one dihvdrochloride]",≤ 1
16,"COc1cnc2ccc(=O)n(CCN3CCC(NCc4ccc(Cl)cc4)CC3)c2c1 [Example 12, 1-[2-(4-{[(4-Chlorophenyl)methyl]amino}-1-piperidinyl)ethyl]-7-(methyloxy)-1,5-naphthyridin-2(1H)-one]",≤ 1
17,"COc1cnc2ccc(=O)n(CCN3CCC(NCc4ccc(Cl)cc4)CC3)c2c1.Cl.Cl [Example 12b, 1-[2-(4-{[(4-Chlorophenyl)methyl]amino}-1-piperidinyl)ethyl]-7-(methyloxy)-1,5-naphthyridin-2(1H)-one dihydrochloride]",≤ 1
18,"COc1cnc2ccc(=O)n(CCN3CCC(NCc4ccc(Cl)cc4)CC3)c2c1.Cl [Example 12c, 1-[2-(4-{[(4-Chlorophenyl)methyl]amino}-1-piperidinyl)ethyl]-7-(methyloxy)-1,5-naphthyridin-2(1H)-one hydrochloride]",≤ 1

row,Compound,MIC [µg/mL]
1,"O=c1ccc2ncc(F)cc2n1CCN1CCC(NCc2ccc(Br)o2)CC1 [Example 34, 1-[2-(4-{[(5-bromo-2-furanyl)methyl]amino}-1-piperidinyl)ethyl]-7-fluoro-1,5-naphthyridin-2(1H)-one]",≤ 2.4
2,"O=c1ccc2ncc(F)cc2n1CCN1CCC(NCc2cc(Cl)ccc2Cl)CC1 [Example 38, 1-[2-(4-{[(2,5-dichlorophenyl)methyl]amino}-1-piperidinyl)ethyl]-7-fluoro-1,5-naphthyridin-2(1H)-one]",≤ 2.4
3,"O=c1ccc2ncccc2n1CCN1CCC(NCc2ccc(Br)s2)CC1 [Example 48, 1-[2-(4-{[(5-bromo-2-thienyl)methyl]amino}-1-piperidinyl)ethyl]-1,5-naphthyridin-2(1H)-one]",≤ 2.4
4,"O=c1ccc2ncccc2n1CCN1CCC(NCc2cnc(Br)s2)CC1 [Example 49, 1-[2-(4-{[(2-bromo-1,3-thiazol-5-yl)methyl]amino}-1-piperidinyl)ethyl]-1,5-naphthyridin-2(1H)-one]",≤ 2.4
5,"COc1ccc(CNC2CCN(CCn3c(=O)ccc4ncccc43)CC2)cc1Cl [Example 51, 1-{2-[4-({[3-chloro-4-(methyloxy)phenyl]methyl}amino)-1-piperidinyl]ethyl}-1,5-naphthyridin-2(1H)-one]",≤ 2.4
6,"COc1cnc2ccc(=O)n(CCN3CCC(NCc4nc(Br)cs4)CC3)c2c1 [Example 64, 1-[2-(4-{[(4-bromo-1,3-thiazol-2-yl)methyl]amino}-1-piperidinyl)ethyl]-7-(methyloxy)-1,5-naphthyridin-2(1H)-one]",≤ 2.4
7,"COc1cnc2ccc(=O)n(CCN3CCC(NCc4ccc(F)c(C)n4)CC3)c2c1 [Example 68, 1-[2-(4-{[(5-fluoro-6-methyl-2-pyridinyl)methyl]amino}-1-piperidinyl)ethyl]-7-(methyloxy)-1,5-naphthyridin-2(1H)-one]",≤ 2.4
8,"O=c1ccc2ncccc2n1CCN1CCC(NCc2cc(Br)cs2)CC1 [Example 81, 1-[2-(4-{[(4-bromo-2-thienyl)methyl]amino}-1-piperidinyl)ethyl]-1,5-naphthyridin-2(1H)-one]",≤ 2.4
9,"O=c1ccc2ncc(F)cc2n1CCN1CCC(NCc2cccc(Cl)c2)CC1 [Example 103, 1-[2-(4-{[(3-chlorophenyl)methyl]amino}-1-piperidinyl)ethyl]-7-fluoro-1,5-naphthyridin-2(1H)-one]",≤ 2.4
10,"COc1cnc2ccc(=O)n(CCN3CCC(NCc4cncc(Cl)n4)CC3)c2c1 [Example 111, 1-[2-(4-{[(6-chloro-2-pyrazinyl)methyl]amino}-1-piperidinyl)ethyl]-7-(methyloxy)-1,5-naphthyridin-2(1H)-one]",≤ 2.4
11,"COc1cnc2ccc(=O)n(CCN3CCC(NCc4ccnc(C(F)(F)F)n4)CC3)c2c1 [Example 113, 7-(methyloxy)-1-{2-[4-({[2-(trifluoromethyl)-4-pyrimidinyl]methyl}amino)-1-piperidinyl]ethyl}-1,5-naphthyridin-2(1H)-one]",≤ 2.4
12,"COc1cnc2ccc(=O)n(CCN3CCC(NCc4cc(C)cc(C)n4)CC3)c2c1 [Example 114, 1-[2-(4-{[(4,6-dimethyl-2-pyridinyl)methyl]amino}-1-piperidinyl)ethyl]-7-(methyloxy)-1,5-naphthyridin-2(1H)-one]",≤ 2.4
13,COc1cnc2ccc(=O)n(CCN3CCC(NCc4ccc(Cl)cn4)CC3)c2c1 [Example 116],≤ 2.4
14,"CC(C)(C)c1ccc(CNC2CCN(CCn3c(=O)ccc4ncc(F)cc43)CC2)cc1 [Example 121, 1-{2-[4-({[4-(1,1-dimethylethyl)phenyl]methyl}amino)-1-piperidinyl]ethyl}-7-fluoro-1,5-naphthyridin-2(1H)-one]",≤ 2.4
15,"Cc1cc(CNC2CCN(CCn3c(=O)ccc4ncc(F)cc43)CC2)cnc1C [Example 125, 1-[2-(4-{[(5,6-dimethyl-3-pyridinyl)methyl]amino}-1-piperidinyl)ethyl]-7-fluoro-1,5-naphthyridin-2(1H)-one]",≤ 2.4
16,"Cc1ncc(CN[C@H]2CCN(CCn3c(=O)ccc4ncc(F)cc43)C[C@H]2O)cc1Br [Example 130, 1-[2-((3R,4S)-4-{[(5-bromo-6-methyl-3-pyridinyl)methyl]amino}-3-hydroxy-1-piperidinyl)ethyl]-7-fluoro-1,5-naphthyridin-2(1H)-one]",≤ 2.4
17,"CC1(NCc2ccc(C(F)(F)F)nc2)CCN(CCn2c(=O)ccc3ncc(F)cc32)CC1 [Example 131, 7-fluoro-1-{2-[4-methyl-4-({[6-(trifluoromethyl)-3-pyridinyl]methyl}amino)-1-piperidinyl]ethyl}-1,5-naphthyridin-2(1H)-one]",≤ 2.4
18,COc1cnc2ccc(=O)n(CCN3CCC(C)(NCc4ccc(Cl)c(Cl)c4)CC3)c2c1 [Example 132],≤ 2.4
